Test results published in the NIST ThermoML archive (doi:10.1016/j.jct.2007.08.008).
Where “and” joins values, the source holds several entries; their conditions need not be identical. Identical values can stand only once. Numbers after ± are expanded uncertainties.

Conditions: Crystal; for mass density: 298.15 K, 101.33 kPa, measurement of volume and mass of pellet; for vapor or sublimation pressure: Calculated from knudsen effusion weight loss

## c1ccc(-c2cccc(-c3ccccc3)c2)cc1 [m-terphenyl]
  mass density: 1140 ± 20 kg/m3
337.28 K
  vapor or sublimation pressure: 6.28e-05 ± 3.2e-06 kPa and 6.44e-05 ± 3.2e-06 kPa and 6.48e-05 ± 3.3e-06 kPa
339.22 K
  vapor or sublimation pressure: 8.09e-05 ± 4.1e-06 kPa and 8.13e-05 ± 4.1e-06 kPa and 7.88e-05 ± 4e-06 kPa
341.11 K
  vapor or sublimation pressure: 0.000101 ± 5e-06 kPa and 9.73e-05 ± 4.9e-06 kPa
343.27 K
  vapor or sublimation pressure: 0.000133 ± 7e-06 kPa and 0.00013 ± 1e-05 kPa and 0.000134 ± 7e-06 kPa
345.21 K
  vapor or sublimation pressure: 0.000164 ± 8e-06 kPa and 0.000163 ± 8e-06 kPa and 0.000162 ± 8e-06 kPa
347.1 K
  vapor or sublimation pressure: 0.000197 ± 1e-05 kPa and 0.000204 ± 1e-05 kPa
349.27 K
  vapor or sublimation pressure: 0.000263 ± 1.3e-05 kPa and 0.000257 ± 1.3e-05 kPa and 0.000264 ± 1.3e-05 kPa
351.2 K
  vapor or sublimation pressure: 0.000324 ± 1.6e-05 kPa and 0.000328 ± 1.6e-05 kPa
353.11 K
  vapor or sublimation pressure: 0.000403 ± 2e-05 kPa and 0.000399 ± 2e-05 kPa
355.28 K
  vapor or sublimation pressure: 0.000518 ± 2.6e-05 kPa and 0.000524 ± 2.6e-05 kPa and 0.000532 ± 2.7e-05 kPa
357.19 K
  vapor or sublimation pressure: 0.000655 ± 3.3e-05 kPa and 0.00065 ± 3.3e-05 kPa and 0.000648 ± 3.2e-05 kPa
359.1 K
  vapor or sublimation pressure: 0.000797 ± 4e-05 kPa and 0.00081 ± 4.1e-05 kPa and 0.000807 ± 4e-05 kPa

## c1ccc(-c2ccccc2-c2ccccc2)cc1 [o-terphenyl]
  mass density: 1120 ± 20 kg/m3
312.3 K
  vapor or sublimation pressure: 6.04e-05 ± 3e-06 kPa and 6.13e-05 ± 3.1e-06 kPa and 5.87e-05 ± 2.9e-06 kPa
313.79 K
  vapor or sublimation pressure: 7.08e-05 ± 3.6e-06 kPa and 7.16e-05 ± 3.6e-06 kPa
315.13 K
  vapor or sublimation pressure: 8.28e-05 ± 4.2e-06 kPa
315.14 K
  vapor or sublimation pressure: 8.47e-05 ± 4.2e-06 kPa and 8.48e-05 ± 4.3e-06 kPa
315.78 K
  vapor or sublimation pressure: 7.29e-05 ± 1.2e-05 kPa
316.78 K
  vapor or sublimation pressure: 0.000103 ± 5e-06 kPa and 0.000102 ± 5e-06 kPa and 0.000104 ± 5e-06 kPa
318.28 K
  vapor or sublimation pressure: 0.000125 ± 6e-06 kPa and 0.000123 ± 6e-06 kPa and 0.000124 ± 6e-06 kPa
319.64 K
  vapor or sublimation pressure: 0.000143 ± 7e-06 kPa and 0.000145 ± 7e-06 kPa and 0.000148 ± 7e-06 kPa
321.28 K
  vapor or sublimation pressure: 0.000181 ± 9e-06 kPa and 0.000179 ± 9e-06 kPa and 0.000174 ± 9e-06 kPa
322.78 K
  vapor or sublimation pressure: 0.000217 ± 1.1e-05 kPa and 0.000212 ± 1.1e-05 kPa
324.14 K
  vapor or sublimation pressure: 0.000247 ± 1.2e-05 kPa and 0.000249 ± 1.2e-05 kPa
325.78 K
  vapor or sublimation pressure: 0.000305 ± 1.5e-05 kPa and 0.000308 ± 1.5e-05 kPa and 0.0003 ± 1.5e-05 kPa
327.28 K
  vapor or sublimation pressure: 0.000368 ± 1.8e-05 kPa and 0.00036 ± 1.8e-05 kPa and 0.000361 ± 1.8e-05 kPa
328.63 K
  vapor or sublimation pressure: 0.000419 ± 2.1e-05 kPa and 0.000422 ± 2.1e-05 kPa and 0.000423 ± 2.1e-05 kPa

## c1ccc(-c2ccc(-c3ccccc3)cc2)cc1 [p-terphenyl]
  mass density: 1200 ± 20 kg/m3
373.27 K
  vapor or sublimation pressure: 0.000127 ± 6e-06 kPa and 0.000126 ± 6e-06 kPa and 0.000125 ± 6e-06 kPa
375.22 K
  vapor or sublimation pressure: 0.000154 ± 8e-06 kPa and 0.000153 ± 8e-06 kPa
377.14 K
  vapor or sublimation pressure: 0.000185 ± 9e-06 kPa and 0.000189 ± 9e-06 kPa and 0.000182 ± 9e-06 kPa
379.28 K
  vapor or sublimation pressure: 0.000232 ± 1.2e-05 kPa and 0.000233 ± 1.2e-05 kPa and 0.000234 ± 1.2e-05 kPa
381.21 K
  vapor or sublimation pressure: 0.00028 ± 2e-05 kPa and 0.000283 ± 1.4e-05 kPa and 0.000281 ± 1.4e-05 kPa
383.28 K
  vapor or sublimation pressure: 0.000344 ± 1.7e-05 kPa and 0.000347 ± 1.7e-05 kPa and 0.000348 ± 1.7e-05 kPa
385.17 K
  vapor or sublimation pressure: 0.000421 ± 2.1e-05 kPa and 0.000417 ± 2.1e-05 kPa
387.12 K
  vapor or sublimation pressure: 0.000516 ± 2.6e-05 kPa and 0.000498 ± 2.5e-05 kPa
389.27 K
  vapor or sublimation pressure: 0.000628 ± 3.1e-05 kPa and 0.000626 ± 3.1e-05 kPa and 0.000631 ± 3.2e-05 kPa
391.16 K
  vapor or sublimation pressure: 0.000748 ± 3.7e-05 kPa and 0.000758 ± 3.8e-05 kPa and 0.000757 ± 3.8e-05 kPa
393.22 K
  vapor or sublimation pressure: 0.000928 ± 4.6e-05 kPa and 0.000931 ± 4.7e-05 kPa and 0.000922 ± 4.6e-05 kPa
395.27 K
  vapor or sublimation pressure: 0.001137 ± 0.00012 kPa and 0.001131 ± 0.00012 kPa and 0.001138 ± 0.00012 kPa
